# Test results: paper PMC12040169 (PLOS Biology, 2025)
# Test: in vitro
# Details: human, hela cells, % viability
row,SMILES,"viability at 28.5 h, 10 µM [%]"
1,CC(=O)Nc1ccc(-c2nc3cc(-c4nc5ccc(NC(C)=O)cc5[nH]4)ccc3[nH]2)cc1 [CBK261165],91.2
2,O=C(Nc1ccccc1C(=O)O)c1cccc(C(=O)Nc2ccccc2C(=O)O)c1 [CBK261166],105
3,NC(=O)c1ccccc1NC(=O)c1ccc(C(=O)Nc2ccccc2C(N)=O)cc1 [CBK261167],106
4,NC(=O)c1ccccc1NC(=O)c1ccc2ccccc2c1 [CBK261171],90.8
5,COC(=O)CCCNS(=O)(=O)c1ccc([N+](=O)[O-])cc1 [CBK261172],109
6,CCOC(=O)C(C(C)=O)(N1CCOCC1)N1CCOCC1 [CBK261173],90.2
7,Cc1ccc2nc(C(=O)O)cc(C(=O)O)c2c1 [CBK261174],91.6
8,C/C(=N\NC(=O)Cc1ccc([N+](=O)[O-])cc1[N+](=O)[O-])c1ccccc1O [CBK261175],88.8
9,O=C(O)c1ccc2c(c1)C(=O)N(c1cccc(/C=C/C(=O)c3cccc(N4C(=O)c5ccc(C(=O)O)cc5C4=O)c3)c1)C2=O [CBK261178],89.8
10,O=C(O)c1ccc(Oc2cccc([N+](=O)[O-])c2)cc1C(=O)O [CBK261179],110
11,Nc1cccc(Oc2ccc(C(=O)O)c(C(=O)O)c2)c1 [CBK261180],89.4
12,O=C(O)c1cc(NC(=O)c2ccc(Oc3ccc([N+](=O)[O-])cc3)cc2)cc(C(=O)O)c1 [CBK261188],88.6
13,O=C(O)c1ccc(S(=O)(=O)c2ccc3c(c2)C(=O)N(c2nccs2)C3=O)cc1 [CBK261189],90.1
14,O=C1c2ccc(Oc3cccc([N+](=O)[O-])c3)cc2C(=O)N1c1ccccn1 [CBK261190],95.8
15,O=C(O)c1ccc2c(c1)C(=O)N(c1ccc(-c3ccnc(-c4ccc(N5C(=O)c6ccc(C(=O)O)cc6C5=O)cc4)n3)cc1)C2=O [CBK261192],104
16,O=C(O)c1cc(C(=O)O)cc(N2C(=O)C3C4C=CC(C4)C3C2=O)c1 (centres unmarked) [CBK261193],97.5
17,O=C(c1ccc2c(c1)C(=O)N(c1ccncc1)C2=O)c1ccc2c(c1)C(=O)N(c1ccncc1)C2=O [CBK261194],88.5
18,O=C(O)c1ccc2c(c1)C(=O)N(c1ccc(C3(c4ccc(N5C(=O)c6ccc(C(=O)O)cc6C5=O)cc4)c4ccccc4-c4ccccc43)cc1)C2=O [CBK261195],92.2
19,O=C(Nc1ccccc1)c1ccc2c(c1)C(=O)N(c1cccc(N3C(=O)c4ccc(C(=O)Nc5ccccc5)cc4C3=O)n1)C2=O [CBK261197],91.5
20,Cc1ccc(NC(=O)c2ccc3c(c2)C(=O)N(c2cccc(N4C(=O)c5ccc(C(=O)Nc6ccc(C)cc6)cc5C4=O)n2)C3=O)cc1 [CBK261198],90.8
21,O=C(O)c1ccc(Oc2ccc3c(c2)C(=O)N(c2nccs2)C3=O)cc1 [CBK261200],101
22,O=C(Nc1cccc(I)c1)c1ccc(Oc2ccc(C(=O)Nc3cccc(I)c3)cc2)cc1 [CBK261201],92.6
23,O=C(CSCc1cccc(Br)c1)Nc1cccc2cccnc12 [CBK261204],101
24,COc1ccc(/C(C)=N/NC(=O)CSCc2cccc(Br)c2)cc1 [CBK261205],81.4
25,Cc1ccc(C(C)C)cc1OCC(=O)N/N=C\c1cc([N+](=O)[O-])ccc1O [CBK261206],92.6
26,NNC(=O)C(Oc1ccccc1)Oc1ccccc1 [CBK261210],100

row,SMILES,"viability at 28.5 h, 10 µM [%]"
1,CC(/C=C/c1ccccc1)=N\NC(=O)C(C)Oc1ccc(Br)cc1 (centres unmarked) [CBK261212],99.7
2,NNC(=O)CCc1ccccc1O [CBK261214],97.2
3,Ic1ccc2c3ccc(I)cc3c3[nH]c(-c4ccccc4)nc3c2c1 [CBK261218],92.9
4,O=C(O)c1nc(/N=C/c2ccc(C#Cc3ccccc3)cc2)n[nH]1 [CBK261219],90.3
5,O=C1C(c2ccccc2)=C(c2ccccc2)C(c2ccc(C3=C(c4ccccc4)C(=O)C(c4ccccc4)=C3c3ccccc3)cc2)=C1c1ccccc1 [CBK261220],87.4
6,COc1ccc(/C=N/c2cc(S(=O)(=O)c3ccc(O)c(/N=C/c4ccc(OC)c(O)c4)c3)ccc2O)cc1O [CBK261223],92.3
7,COc1cc(/C=N/c2cccc3c(/N=C/c4ccc(O)c(OC)c4)cccc23)ccc1O [CBK261224],85.8
8,Cc1[nH]c2ccccc2c1/C=N/c1ccc(/N=C/c2c(C)[nH]c3ccccc23)cc1 [CBK261226],83.4
9,Cc1[nH]c2ccccc2c1/C=N/c1cccc2c(/N=C/c3c(C)[nH]c4ccccc34)cccc12 [CBK261227],97.6
10,CCn1c2ccccc2c2cc(/C=N/c3cc(S(=O)(=O)c4ccc(O)c(/N=C/c5ccc6c(c5)c5ccccc5n6CC)c4)ccc3O)ccc21 [CBK261229],76.5
11,O=C(/C=C\c1cccs1)NC(=S)Nc1ccc([N+](=O)[O-])cc1O [CBK261231],89.4
12,COc1ccc(OCC(=O)N/N=C\c2c(OC)ccc3ccccc23)c(Br)c1 [CBK261235],86.3
13,Cc1cccc(NCC(=O)N/N=C/c2cc3ccccc3nc2Cl)c1 [CBK261236],90
14,O=S1(=O)c2cc(/N=C/c3c(O)ccc4ccccc34)ccc2-c2ccc(/N=C/c3c(O)ccc4ccccc34)cc21 [CBK261240],84.7
15,c1ccc2sc(CCCCc3nc4ccccc4s3)nc2c1 [CBK261248],92.5
16,O=C(O)C1CCCN1S(=O)(=O)c1ccc(Cl)cc1 (centres unmarked) [CBK261249],88.1
17,CC(=O)N/N=C(\C)c1ccc(-n2cnnn2)cc1 [CBK261252],95.9
18,O=C(O)c1ccc(Sc2ccc(S(=O)(=O)c3ccc(C(=O)O)c(C(=O)O)c3)cc2)cc1 [CBK261253],106
19,O=C(O)CSc1ccc(Oc2ccc(SCC(=O)O)cc2)cc1 [CBK261254],92.6
20,O=C(CSc1cccc2c(SCC(=O)c3ccccc3)cccc12)c1ccccc1 [CBK261255],87.9
21,O=C(CCS(=O)(=O)c1cc(Cl)ccc1Cl)OCC(=O)c1ccccc1 [CBK261256],90.1
22,O=C(O)c1cccc(NS(=O)(=O)c2cccc(S(=O)(=O)c3ccc(Cl)c(Cl)c3)c2)c1 [CBK261259],102
23,O=C1CC(N2CCN(c3ccccc3)CC2)C(=O)N1c1cccc2ccccc12 (centres unmarked) [CBK261263],92.8
24,Cc1ccccc1-n1nc(-c2ccc(NC(=O)c3ccccc3)cc2)cc1NC(=O)c1ccccc1 [CBK261264],82.2
25,Nc1cc(N)nc(SCc2ccccc2)n1 [CBK261266],96.1
26,N#Cc1c(N)nc(SCC(=O)O)c(C#N)c1-c1ccc(O)cc1 [CBK261270],98

row,SMILES,"viability at 28.5 h, 10 µM [%]"
1,O=C(O)c1cnc(-c2ccccc2)nc1 [CBK261272],93.2
2,Brc1cnc(OCc2ccccc2)nc1OCc1ccccc1 [CBK261274],101
3,Oc1ccccc1-c1cc(-c2ccccc2)c2c(ccc3ncccc32)n1 [CBK261276],91.9
4,CN(C)Cc1ccccc1C(O)c1ccccc1 (centres unmarked) [CBK261277],94.4
5,CCC(C)NC(=O)C(Cc1ccc([N+](=O)[O-])cc1)N1C(=O)c2ccccc2C1=O (centres unmarked) [CBK261278],105
6,O=C(NCc1ccccc1)C(Cc1ccc([N+](=O)[O-])cc1)N1C(=O)c2ccccc2C1=O (centres unmarked) [CBK261279],95.9
7,O=C(COc1ccccc1)N/N=C/c1ccc[nH]1 [CBK261281],104
8,C(=N\c1ccc(Cc2ccc(/N=C/c3ccc[nH]3)cc2)cc1)/c1ccc[nH]1 [CBK261282],101
9,CNCC(=O)N1c2ccccc2CCc2ccc(NC(=O)OC)cc21 [CBK261285C],96.5
10,O=C1C2C(c3ccc(F)cc3)NC(c3ccc(F)cc3)C1C(c1ccc(F)cc1)NC2c1ccc(F)cc1 (centres unmarked) [CBK261288],110
11,CCOC(=O)Nc1ccc2c(c1)N(C(=O)CCN1CCOCC1)c1ccccc1CC2 [CBK261291C],103
12,O=C(CCc1ccccc1)NNC(=O)C1CC1c1ccccc1 (centres unmarked) [CBK261292],114
13,CCOc1ccc(NC(NC(=O)Nc2ccccc2)C(Cl)(Cl)Cl)cc1 (centres unmarked) [CBK261294],99.8
14,O=C(CCCCCN1C(=O)c2cccc3cccc(c23)C1=O)NO [CBK261295],55.6
15,COc1ccc(C(=O)Nc2ccccc2Nc2cc(-c3ccccc3)nn2-c2ccccc2)cc1 [CBK261296],88.4
16,O=C(Nc1ccccc1Nc1cc(-c2ccccc2)nn1-c1ccccc1)c1ccc(Br)cc1 [CBK261297],84.7
17,Cc1ncc([N+](=O)[O-])n1CCOC(=O)NC(N1CCOCC1)C(Cl)(Cl)Cl (centres unmarked) [CBK261299],103
18,COc1cc(OC)cc(C(=O)Nc2ccc(S(=O)(=O)Nc3nccs3)cc2)c1 [CBK261300],103
19,COc1cc(/C=C2\SC(=S)N(CC(=O)NNC(=O)c3ccccc3O)C2=O)ccc1O [CBK261301],94
20,O=C1NC2(CCCCC2)C(=O)N1CCS(=O)(=O)Oc1ccc(Br)cc1 [CBK261303],93.5
21,O=C(O)CC/C(=N\NC(=O)c1cccnc1)c1ccccc1 [CBK261305],97.2
22,Cc1ccc(S(=O)(=O)NC(CC(=O)O)c2ccccc2)cc1 (centres unmarked) [CBK261307],105
23,CCOC(=O)c1c(CN(C)C)n(-c2ccccc2)c2cc(Br)c(O)cc12 [CBK261309C],83.4
24,COc1ccc(OC)c(C(O)c2coc3ccc(O)c(CN(C)C)c23)c1 (centres unmarked) [CBK261314],114
25,O=C(O)CCCNS(=O)(=O)c1ccc([N+](=O)[O-])cc1 [CBK261317],93.1
26,NS(=O)(=O)c1ccc(Nc2c(C(=O)O)cc([N+](=O)[O-])cc2[N+](=O)[O-])cc1 [CBK261319],93

# Same assay, conditions: human, hela cells, % viability, bulk resorufin, single well
row,SMILES,"viability at 28.5 h, 10 µM [%]"
1,O=C(Nc1ccc(NC(=O)c2cccc([N+](=O)[O-])c2)c(Cl)c1)c1cccc([N+](=O)[O-])c1 [CBK261196],105
2,Cc1cccc(OP(=O)(O)Oc2cccc(C)c2C)c1C [CBK261316],91.7
